In patent US9326506B2, “Preparation method, agricultural composition and applications of natural brassinolide analogs” (CHENGDU NEWSUN CROPSCIENCE CO., LTD, priority 2012, dated 2016):

Test system: rice
Experiment: Low temperature assay on rice seedlings
Format: in vivo
Procedure: According to a low temperature assay, we measured parameters including plant height, number of leaf, area of leaf, number of tiller, weight of root at low temperature to completely determine effects of the natural brassinolide analogues on the resistance to low temperature of a plant.
The natural brassinolide analogues, BR1, BR2, BR3, BR4, BR5 and BR6, used herein, were those prepared by the method of Example 1. Respectively the analogues were dissolved into 95% (V/V) ethanol solution, and then diluted with pure water to 1 mg/L, 0.1 mg/L, 0.01 mg/L, 0.001 mg/L and 0.0001 mg/L. In addition, pure water was used as a control.
After rice seeds were disinfected by using 5% sodium hypochlorite solution treatment, they were rinsed with distilled water until their pH>7, placed into a petri dish in a dark incubator, and cultured by using water at 30° C.±2° C. for 9 days. Then respectively the nine-day-old etiolated seedlings of rice were immersed in the above solutions containing different concentrations of the natural brassinolide analogues or pure water, and cultured at the temperature of 1° C., 2° C., 3° C., 4° C. and 5° C. for 24 hr. The parameters including plant height, area of leaf and weight of root after 3, 6, 9 and 12 days and number of leaf and number of tiller after 12 days were measured.

Question: How did the Area of leaf (0.001 mg/l, 2 °C, 6 days) turn out when `CC[C@@H](C(C)C)[C@@H](O)[C@H](O)[C@@H](C)[C@H]1CCC2C3COC(=O)C4C[C@H](O)[C@H](O)C[C@]4(C)C3CC[C@@]21C` (stereo partly shown) [BR2] was run?
Answer: The Area of leaf was 11.6 cm^2.

Question: And the Height (0.001 mg/l, 2 °C, 6 days)?
Answer: Its Height is 7.1 cm.

Question: And the Weight of root (0.001 mg/l, 2 °C, 6 days)?
Answer: The Weight of root was 3.0 g.

Question: And the Area of leaf (0.001 mg/l, 2 °C, 9 days)?
Answer: The Area of leaf was 12.1 cm^2.

Question: What about the Height (0.001 mg/l, 2 °C, 9 days) of the same compound?
Answer: Its Height is 7.1 cm.

Question: And the Weight of root (0.001 mg/l, 2 °C, 9 days)?
Answer: The Weight of root was 3.2 g.

Question: What about the Area of leaf (0.001 mg/l, 2 °C, 12 days) of the same compound?
Answer: The Area of leaf was 13.1 cm^2.

Question: What about the Height (0.001 mg/l, 2 °C, 12 days) of the same compound?
Answer: The Height was 7.3 cm.

Question: What about the Number of leaf (0.001 mg/l, 2 °C, 12 days) of the same compound?
Answer: Its Number of leaf is 3.

Question: What about the Number of tiller (0.001 mg/l, 2 °C, 12 days) of the same compound?
Answer: The Number of tiller was 3.

Question: What about the Weight of root (0.001 mg/l, 2 °C, 12 days) of the same compound?
Answer: Its Weight of root is 3.9 g.

Question: What about the Area of leaf (0.001 mg/l, 3 °C, 3 days) of the same compound?
Answer: Its Area of leaf is 10 cm^2.

Question: What about the Height (0.001 mg/l, 3 °C, 3 days) of the same compound?
Answer: The Height was 7 cm.

Question: What about the Weight of root (0.001 mg/l, 3 °C, 3 days) of the same compound?
Answer: Its Weight of root is 2.5 g.

Question: And the Area of leaf (0.001 mg/l, 3 °C, 6 days)?
Answer: Its Area of leaf is 12 cm^2.

Question: And the Height (0.001 mg/l, 3 °C, 6 days)?
Answer: Its Height is 7.1 cm.

Question: And the Weight of root (0.001 mg/l, 3 °C, 6 days)?
Answer: Its Weight of root is 2.6 g.

Question: What about the Area of leaf (0.001 mg/l, 3 °C, 9 days) of the same compound?
Answer: The Area of leaf was 12.4 cm^2.

Question: And the Height (0.001 mg/l, 3 °C, 9 days)?
Answer: Its Height is 7.3 cm.

Question: What about the Weight of root (0.001 mg/l, 3 °C, 9 days) of the same compound?
Answer: Its Weight of root is 2.9 g.

Question: What about the Area of leaf (0.001 mg/l, 3 °C, 12 days) of the same compound?
Answer: Its Area of leaf is 13 cm^2.

Question: What about the Height (0.001 mg/l, 3 °C, 12 days) of the same compound?
Answer: Its Height is 7.4 cm.

Question: What about the Number of leaf (0.001 mg/l, 3 °C, 12 days) of the same compound?
Answer: The Number of leaf was 3.

Question: And the Number of tiller (0.001 mg/l, 3 °C, 12 days)?
Answer: The Number of tiller was 2.

Question: What about the Weight of root (0.001 mg/l, 3 °C, 12 days) of the same compound?
Answer: Its Weight of root is 2.9 g.

Question: What about the Area of leaf (0.001 mg/l, 4 °C, 3 days) of the same compound?
Answer: Its Area of leaf is 10 cm^2.

Question: What about the Height (0.001 mg/l, 4 °C, 3 days) of the same compound?
Answer: Its Height is 7.1 cm.

Question: What about the Weight of root (0.001 mg/l, 4 °C, 3 days) of the same compound?
Answer: Its Weight of root is 2.5 g.

Question: What about the Area of leaf (0.001 mg/l, 4 °C, 6 days) of the same compound?
Answer: The Area of leaf was 12.1 cm^2.

Question: What about the Height (0.001 mg/l, 4 °C, 6 days) of the same compound?
Answer: Its Height is 7.3 cm.

Question: And the Weight of root (0.001 mg/l, 4 °C, 6 days)?
Answer: Its Weight of root is 2.6 g.

Question: And the Area of leaf (0.001 mg/l, 4 °C, 9 days)?
Answer: Its Area of leaf is 13 cm^2.

Question: And the Height (0.001 mg/l, 4 °C, 9 days)?
Answer: Its Height is 7.5 cm.

Question: And the Weight of root (0.001 mg/l, 4 °C, 9 days)?
Answer: The Weight of root was 2.9 g.

Question: And the Area of leaf (0.001 mg/l, 4 °C, 12 days)?
Answer: The Area of leaf was 13.5 cm^2.

Question: What about the Height (0.001 mg/l, 4 °C, 12 days) of the same compound?
Answer: The Height was 7.5 cm.

Question: What about the Number of leaf (0.001 mg/l, 4 °C, 12 days) of the same compound?
Answer: Its Number of leaf is 3.

Question: What about the Number of tiller (0.001 mg/l, 4 °C, 12 days) of the same compound?
Answer: Its Number of tiller is 2.

Question: And the Weight of root (0.001 mg/l, 4 °C, 12 days)?
Answer: Its Weight of root is 2.9 g.

Question: And the Area of leaf (0.001 mg/l, 5 °C, 3 days)?
Answer: The Area of leaf was 10.2 cm^2.

Question: And the Height (0.001 mg/l, 5 °C, 3 days)?
Answer: The Height was 7.2 cm.

Question: And the Weight of root (0.001 mg/l, 5 °C, 3 days)?
Answer: The Weight of root was 2.8 g.

Question: What about the Area of leaf (0.001 mg/l, 5 °C, 6 days) of the same compound?
Answer: Its Area of leaf is 14 cm^2.

Question: And the Height (0.001 mg/l, 5 °C, 6 days)?
Answer: The Height was 7.5 cm.

Question: And the Weight of root (0.001 mg/l, 5 °C, 6 days)?
Answer: The Weight of root was 2.9 g.

Question: What about the Area of leaf (0.001 mg/l, 5 °C, 9 days) of the same compound?
Answer: The Area of leaf was 15.4 cm^2.

Question: And the Height (0.001 mg/l, 5 °C, 9 days)?
Answer: Its Height is 7.8 cm.

Question: And the Weight of root (0.001 mg/l, 5 °C, 9 days)?
Answer: The Weight of root was 3.0 g.

Question: What about the Area of leaf (0.001 mg/l, 5 °C, 12 days) of the same compound?
Answer: The Area of leaf was 16 cm^2.

Question: And the Height (0.001 mg/l, 5 °C, 12 days)?
Answer: Its Height is 8 cm.

Question: And the Number of leaf (0.001 mg/l, 5 °C, 12 days)?
Answer: The Number of leaf was 3.

Question: What about the Number of tiller (0.001 mg/l, 5 °C, 12 days) of the same compound?
Answer: Its Number of tiller is 3.

Question: And the Weight of root (0.001 mg/l, 5 °C, 12 days)?
Answer: Its Weight of root is 3.7 g.

Question: What about the Area of leaf (0.01 mg/l, 1 °C, 3 days) of the same compound?
Answer: Its Area of leaf is 10.1 cm^2.

Question: And the Height (0.01 mg/l, 1 °C, 3 days)?
Answer: Its Height is 7.0 cm.

Question: And the Weight of root (0.01 mg/l, 1 °C, 3 days)?
Answer: Its Weight of root is 2.8 g.

Question: What about the Area of leaf (0.01 mg/l, 1 °C, 6 days) of the same compound?
Answer: Its Area of leaf is 11.6 cm^2.

Question: What about the Height (0.01 mg/l, 1 °C, 6 days) of the same compound?
Answer: Its Height is 7.2 cm.

Question: And the Weight of root (0.01 mg/l, 1 °C, 6 days)?
Answer: Its Weight of root is 3.0 g.

Question: And the Area of leaf (0.01 mg/l, 1 °C, 9 days)?
Answer: The Area of leaf was 12.4 cm^2.

Question: And the Height (0.01 mg/l, 1 °C, 9 days)?
Answer: Its Height is 7.4 cm.

Question: What about the Weight of root (0.01 mg/l, 1 °C, 9 days) of the same compound?
Answer: Its Weight of root is 3.4 g.

Question: What about the Area of leaf (0.01 mg/l, 1 °C, 12 days) of the same compound?
Answer: Its Area of leaf is 13.6 cm^2.

Question: And the Height (0.01 mg/l, 1 °C, 12 days)?
Answer: Its Height is 7.5 cm.

Question: What about the Number of leaf (0.01 mg/l, 1 °C, 12 days) of the same compound?
Answer: The Number of leaf was 3.

Question: And the Number of tiller (0.01 mg/l, 1 °C, 12 days)?
Answer: Its Number of tiller is 3.

Question: And the Weight of root (0.01 mg/l, 1 °C, 12 days)?
Answer: The Weight of root was 3.9 g.

Question: What about the Area of leaf (0.01 mg/l, 2 °C, 3 days) of the same compound?
Answer: The Area of leaf was 10.1 cm^2.

Question: And the Height (0.01 mg/l, 2 °C, 3 days)?
Answer: The Height was 7.1 cm.

Question: And the Weight of root (0.01 mg/l, 2 °C, 3 days)?
Answer: The Weight of root was 2.8 g.

Question: And the Area of leaf (0.01 mg/l, 2 °C, 6 days)?
Answer: The Area of leaf was 11.1 cm^2.

Question: And the Height (0.01 mg/l, 2 °C, 6 days)?
Answer: The Height was 7.2 cm.

Question: What about the Weight of root (0.01 mg/l, 2 °C, 6 days) of the same compound?
Answer: Its Weight of root is 3.1 g.

Question: And the Area of leaf (0.01 mg/l, 2 °C, 9 days)?
Answer: The Area of leaf was 12.5 cm^2.

Question: And the Height (0.01 mg/l, 2 °C, 9 days)?
Answer: Its Height is 7.5 cm.

Question: And the Weight of root (0.01 mg/l, 2 °C, 9 days)?
Answer: Its Weight of root is 3.1 g.

Question: And the Area of leaf (0.01 mg/l, 2 °C, 12 days)?
Answer: Its Area of leaf is 13.4 cm^2.

Question: What about the Height (0.01 mg/l, 2 °C, 12 days) of the same compound?
Answer: Its Height is 7.5 cm.

Question: What about the Number of leaf (0.01 mg/l, 2 °C, 12 days) of the same compound?
Answer: Its Number of leaf is 3.

Question: What about the Number of tiller (0.01 mg/l, 2 °C, 12 days) of the same compound?
Answer: Its Number of tiller is 3.

Question: And the Weight of root (0.01 mg/l, 2 °C, 12 days)?
Answer: The Weight of root was 3.2 g.

Question: And the Area of leaf (0.01 mg/l, 3 °C, 3 days)?
Answer: The Area of leaf was 10.2 cm^2.

Question: What about the Height (0.01 mg/l, 3 °C, 3 days) of the same compound?
Answer: The Height was 7.1 cm.

Question: And the Weight of root (0.01 mg/l, 3 °C, 3 days)?
Answer: The Weight of root was 2.5 g.

Question: And the Area of leaf (0.01 mg/l, 3 °C, 6 days)?
Answer: The Area of leaf was 12 cm^2.

Question: What about the Height (0.01 mg/l, 3 °C, 6 days) of the same compound?
Answer: Its Height is 7.2 cm.

Question: And the Weight of root (0.01 mg/l, 3 °C, 6 days)?
Answer: Its Weight of root is 2.6 g.

Question: And the Area of leaf (0.01 mg/l, 3 °C, 9 days)?
Answer: Its Area of leaf is 12.6 cm^2.
